Results on 23 molecules are retold here after patent publication US20220267272A1, “PYRIDINIUM SALT AND PEST CONTROL AGENT” (Nippon Soda Co., Ltd., priority 2019, published 2022).

For one data set, the system named is Spodoptera litura. As to the kind of experiment: Efficacy test against Spodoptera litura (cabbage leaf disc). Format: in vivo. The note with it: foliar, 144 h. Here is the method: (§1) 5 parts by mass of a compound according to the present invention, 93.6 parts of dimethylformamide, and 1.4 parts of polyoxyethylene alkyl aryl ether were mixed and dissolved to obtain an emulsion (1) containing 5% by mass of the active ingredient.
The emulsion (1) was diluted with water such that the amount of the compound according to the present invention became 125 ppm by mass. A cabbage leaf disc was immersed in the diluted solution for 30 seconds. The cabbage leaf disc was air-dried and then put in a petri dish, followed by leaving five second-instar larvae of Spodoptera litura therein. The petri dish was placed in a thermostatic chamber at a temperature of 25° C. and a humidity of 60%. After six days had passed from leaving the larvae, life or death was assessed and the mortality was calculated. The test was repeated twice.

The test system of the next data set is Helicoverpa armigera. As to the kind of experiment: Efficacy test against Helicoverpa armigera (cabbage leaf disc). Format: in vivo. The note with it: foliar, 144 h.
In another data set the test system is Mythimna separata. As to the kind of experiment: Efficacy test (2) against Mythimna separata (corn leaf disc). Format: in vivo. Particulars: foliar, 144 h, 125 ppm by mass, corn leaf disc immersed 30 seconds, second-instar larvae, 25° C., humidity 60%, after six days. Here is the method:
as §1
The emulsion (1) was diluted with water such that the amount of the compound according to the present invention became 125 ppm by mass. A corn leaf disc was immersed in the diluted solution for 30 seconds. The corn leaf disc was put in a petri dish, and five second-instar larvae of Mythimna separata were left therein. The petri dish was placed in a thermostatic chamber at a temperature of 25° C. and a humidity of 60%. After six days had passed from leaving the larvae, life or death was assessed and the mortality was calculated. The test was repeated twice.

The subject of a further data set is Plutella xylostella. As to the kind of experiment: Efficacy test against Plutella xylostella (cabbage leaf disc). The note with it: foliar, 72 h, 125 ppm by mass, cabbage leaf disc immersed 30 seconds, second-instar larvae, 25° C., humidity 60%, after three days. Format: in vivo.
Where [1] appears, read: 125 ppm by mass, cabbage leaf disc immersed 30 seconds, second-instar larvae, 25° C., humidity 60%, after six days, read-out: mortality.

Structures can show the parent of a compound that is named as a salt. Where two headings read alike, the source gives them in different places.

The melting point is the temperature, or range, at which the solid turns liquid. For `O=C([N-][n+]1ccccc1)c1ccc(NS(=O)(=O)c2ccc(C(F)(F)F)cc2)cc1`, the melting point lay within 199 to 203 °C.

Take `O=C([N-][n+]1ccccc1)c1ccc(NC(=O)c2ccc(C(F)(F)F)cc2)cc1`: the melting point is 287 to 289 °C.

Molecule `Cl.O=C(N[n+]1ccccc1)c1ccc(NCc2ccc(OC(F)(F)F)cc2)cc1.[Cl-]` registered a melting point of 204 to 206 °C.

Consider `O=C([N-][n+]1ccccc1)c1ccc(SCC(F)(F)C(F)(F)C(F)(F)C(F)(F)C(F)(F)F)cc1` (as salt: salt) [Compound C1-18, 1-(4-((2,2,3,3,4,4,5,5,6,6,6-undecafluorohexyl)thio)benzamide) pyridinium intramolecular salt], for which the melting point was 132 to 134 °C.

In turn, `O=C([N-][n+]1ccccc1)c1ccc(C(=O)Nc2ccc(OC(F)(F)F)cc2)cc1` [Compound C1-1, pyridin-1-ium-1-yl(4-((4-(trifluoromethoxy)phenyl)carbamoyl)benzoyl)amide] registered a melting point of 281 to 283 °C.

Take `O=C([N-][n+]1ccccc1)c1ccc(/C=N/OCC(F)(F)F)cc1` [Compound C1-5, (E)-pyridin-1-ium-1-yl(4-(((2,2,2-trifluoroethoxy)imino)methyl)benzoyl)amide]: the melting point is 142 to 143 °C.

Molecule `O=C([N-][n+]1ccccc1)c1ccc(Cc2ccc(C(F)(F)F)cc2)cc1` [Compound C1-7, pyridin-1-ium-1-yl(4-(4-(trifluoromethyl)benzyl)benzoyl)amide] showed a melting point of 180 to 183 °C.

On to `O=C([N-][n+]1ccccc1)c1ccc(Oc2ccc(OC(F)(F)F)cc2)cc1` [Compound C1-8, pyridin-1-ium-1-yl(4-(4-(trifluoromethoxy)phenoxy)benzoyl)amide], for which the melting point was in the range of 111 to 113 °C.

As a reminder, the mortality is the percentage killed. For the molecule `O=C([N-][n+]1ccccc1)c1ccc(OC(F)(F)C(F)OC(F)(F)C(F)(F)C(F)(F)F)cc1` (stereo not shown) [Compound C1-11, 1-(4-(1,1,2-trifluoro-2-(perfluoropropoxy)ethoxy)benzamide) pyridinium intramolecular salt], the mortality at 125 ppm in the data set on Spodoptera litura and with Helicoverpa armigera was at least 80% each time.

`O=C([N-][n+]1ccccc1)c1ccc(OCC(F)(F)C(F)(F)C(F)(F)C(F)(F)F)cc1` [Compound C1-19, 1-(4-(2,2,3,3,4,4,5,5,5-nonafluoropentoxy)benzamide)pyridinium intramolecular salt] registered a mortality at 125 ppm with Spodoptera litura of at least 80%.

Regarding `O=C([N-][n+]1ccccc1)c1ccc(/C=C/C(F)(F)F)cc1` [Compound C1-25, 1-(4-((1E)-3,3,3-trifluoro-1-propen-1-yl)benzamide)pyridinium intramolecular salt], in the data set with Spodoptera litura (setting [1]), the mortality at 125 ppm is at least 80%.

On to `O=C([N-][n+]1ccccc1)c1ccc(C#Cc2ccc(C(F)(F)F)cc2)cc1` [Compound C1-29, pyridin-1-ium-1-yl(4-((4-(trifluoromethyl)phenyl)ethynyl)benzoyl) amide], for which the mortality at 125 ppm in the data set with Mythimna separata, in the data set on Spodoptera litura (setting [1]) and in the data set with Plutella xylostella was at least 80% in each case.

Consider `O=C([N-][n+]1ccccc1)c1ccc(C(=O)c2ccc(OC(F)(F)F)cc2)cc1` [Compound C1-30, 1-(4-(4-(trifluoromethoxy)benzoyl)benzamide)pyridinium intramolecular salt], for which, in the data set on Plutella xylostella, the mortality at 125 ppm was at least 80%.

For the molecule `O=C([N-][n+]1ccccc1)c1ccc(/C=C/c2ccc(C(F)(F)F)cc2)cc1` [Compound C1-31, (E)-Pyridin-1-ium-1-yl(4-(4-(trifluoromethyl)styryl)benzoyl)amide], the mortality at 125 ppm in the data set on Mythimna separata, in the data set with Spodoptera litura (setting [1]) and in the data set with Plutella xylostella was at least 80% each time.

`CC(C)(C)OC(=O)Nc1ccc(C(=O)[N-][n+]2ccccc2)cc1` [Compound C1-57, (4-((tert-butoxycarbonyl)amino)benzoyl)(pyridin-1-ium-1-yl)amide] displayed a melting point of 251 to 253 °C.

Turning to `O=C([N-][n+]1ccccc1)c1ccc(C2CC2c2ccc(OC(F)(F)F)cc2)cc1` (stereo not shown) [Compound C2-1], the mortality at 125 ppm with Spodoptera litura (setting [1]) and in the data set with Helicoverpa armigera (setting [1]) was at least 80% in each case.

For the molecule `O=C([N-][n+]1ccccc1)c1ccc(C2CC2c2ccc(C(F)(F)F)cc2)cc1` (stereo not shown) [Compound C2-2], the mortality at 125 ppm in the data set on Spodoptera litura (setting [1]) and with Helicoverpa armigera (setting [1]) was at least 80% in each case.

The molecule `Cc1cccc[n+]1[N-]C(=O)c1ccc(C2CC2c2ccc(Cl)cc2)cc1` (stereo not shown) [Compound C2-3] registered a melting point of 140 to 144 °C.

`O=C([N-][n+]1ccccc1)c1ccc(C2CC2c2ccc(Cl)cc2)cc1` (stereo not shown) [Compound C2-4]: the mortality at 125 ppm in the data set on Mythimna separata was at least 80%.

As for `O=C([N-][n+]1ccccc1)c1ccc(/C=C/c2ccc(OC(F)(F)F)cc2)cc1` [Compound C2-5], the mortality at 125 ppm in the data set with Spodoptera litura (setting [1]) and with Plutella xylostella was at least 80% in each case.

With `O=C([N-][n+]1ccccc1)c1ccc(OC/C=C\Cl)cc1` [Compound C2-7], the melting point was 101 to 104 °C.

Molecule `O=C([N-][n+]1ccccc1)c1ccc(OC/C=C/Cl)cc1` [Compound C2-8] returned a melting point of 161 to 162 °C.

In turn, `CC(C)(C)OC(=O)N(Cc1ccc(OC(F)(F)F)cc1)c1ccc(C(=O)[N-][n+]2ccccc2)cc1` [Compound C2-9] showed a melting point of 183 to 184 °C.
